Assay results published in US9273276B2, “Devices and methods for pharmacokinetic-based cell culture system” (priority 2001, dated 2016).
Entries after “also recorded” stand apart in the source; their conditions may differ.

What was measured:
HCT-116 cells = assay: Traditional in vitro cell culture assay, HCT-116 cells on poly-lysine treated glass coverslips; assay type: cell-based, human; settings: for cell death of HCT-116 cells, traditional cell culture assay: coverslips, no liver cells, 48 hr exposure
Method: (§1) FIG. 16 Tegafur dose response. Chips were seeded with HepG2-C3A cells in the liver compartment and HCT-116 colon cancer cells in the target tissues compartment. The chips were treated with indicated concentrations of tegafur for 24 hours. The first graph (FIG. 16A) is a plot of percentage dead cells vs. tegafur or 5-FU concentration after 24 hours of re-circulation on the chip. The second graph (FIG. 16B) is a similar dose response using a traditional in vitro cell culture assay with HCT 116 cells using a 48 hour exposure. HCT-116 cells were seeded on poly-lysine treated glass coverslips and exposed to either tegafur or 5-FU at the indicated concentrations. After a 48 hr incubation, coverslips were treated as described above and the percentage of cell death was determined.
To measure the cytotoxic effects of tegafur against colon cancer cells, the microscale chip was prepared with HepG2-C3A cells in the liver compartment and HCT-116 human colon cancer cells in the target tissue compartment. Tegafur was added to the re-circulating medium at various concentrations for 24 hours and the cells labeled with Hoechst 33342, a membrane permeable DNA dye, and ethidium homodimer, a membrane impermeable DNA dye (see Methods Section).

[1] = system: HCT-116 human colon cancer cells; settings: for cell death of HCT-116 cells on chip without liver compartment cells: chips seeded with HCT-116 cells only, no cells in liver compartment, 24 hours
Method: as §1, with “Chips were seeded with HepG2-C3A cells in the liver compartment and HCT-116 colon cancer cells in the target tissues compartment.” left out
(§2) LIVE/DEAD stain is a two-component stain consisting of calcein AM and ethidium homodimer. Living cells actively hydrolyze the acetoxymethyl ester (AM) moiety of calcein AM to produce bright green fluorescence of calcein. In contrast, cells that have compromised membrane integrity allow the normally membrane impermeant ethidium homodimer to stain the nucleus of dead or dying cells fluorescent red. The cell permeant nuclear stain, Hoechst 33342 acts as a general stain for all cells. Together with the appropriate filter sets, living cells fluoresce green, dying or dead cells red, and all cells are quantified by a blue nuclear fluorescence. For experiments described herein, trypan blue was used at 0.2% (w/v), calcein AM at 1:20,000, propidium iodide at 1:5,000, and Hoechst 33342 at 10 μg/ml. Cells were visualized with a M2Bio stereofluorescence microscope (Zeiss). All experiments were repeated at least three times and measurements done in triplicate.
[…] Tegafur was added to the re-circulating medium at various concentrations for 24 hours and the cells labeled with Hoechst 33342, a membrane permeable DNA dye, and ethidium homodimer, a membrane impermeable DNA dye (see Methods Section).

[2] = system: HepG2/C3A cells in the liver compartment and HCT116 cells in the target tissues compartment; assay: Annexin V-FITC apoptosis assay on microscale chip system; assay type: cell-based, human; settings: 1 μM, 6-hour treatment, compared to untreated control cell chips
Method: With the microscale chip, annexin V-FITC labeling was visualized directly on-chip, by first flushing the system with PBS, then recirculating annexin V-FITC (10 μg/ml in annexin V binding buffer, Clontech) for 30 min. Cells were then visualized directly using a FITC filter set.
Briefly, the microscale chip cell chips were seeded with HepG2/C3A cells in the liver compartment and HCT116 cells in the target tissues compartment. Cell chips were loaded onto the microscale chip system and treated with and without 1 μM staurosporine as described above. After a 6-hour incubation, the re-circulating medium was switched to PBS containing Annexin V-FITC and Hoechst 33342 and allowed to flow through the system for 30 minutes. Cell chips were removed from the acrylic housing and visualized under a fluorescent microscope. Cells were visualized under a fluorescent microscope and fluorescent images of identical fields were obtained using the appropriate filter sets.

HCT116 cells [3] = assay: LIVE/DEAD cytotoxicity assay on the microscale chip system (HepG2/C3A liver, HCT116 target tissues); assay type: cell-based, human; settings: 1 μM, 24 hour treatment, compared to untreated control cell chips
From the text: as §2
(§3) Two different assays to detect apoptosis were investigated. The first assay was the immunofluorescence-based terminal deoxynucleotidyl transferase BrdU nick end labeling (TUNEL) technique available in kit form as APOPTAG™ (Intergen Co., MA) (see Methods section).

HepG2/C3A cells [4] = assay: APOPTAG (TUNEL) apoptosis assay, HepG2/C3A cells on glass coverslips; assay type: cell-based, human; settings: 1 μM, 24-hour incubation, compared to untreated controls
From the text: (§4) In contrast to annexin V labeling, the APOPTAG™ kit (Intergen Co., MA) uses terminal deoxynucleotidyl transferase to label free 3′-OH DNA termini exposed during apoptotic DNA degradation and visualization using immunofluorescence (Li, X., Traganos, F., Melamed, M. R., and Darzynkiewicz, Z. (1995). Single-step procedure for labeling DNA strand breaks with flourescein- or BODIPY-conjugated deoxynucleotides: detection of apoptosis and bromodeoxyuridine incorporation. Cytometry 20, 172-180). Although this method is highly specific for apoptosis, the procedure cannot be done on-chip due to the fixation and incubation steps. Briefly, microscale chips were run under specified experimental conditions, the cell chips were removed from their housing units, fixed in 1% paraformaldehyde and processed with the APOPTAG™ kit using the manufacturer's protocol.
as §3, with “section). The assay was first optimized using cells grown on glass coverslips. Briefly, HepG2/C3A cells were seeded onto poly-D-lysine treated glass coverslips and treated with and without staurosporine. Coverslips were processed as described (see Methods section).” for “section).”

HCT116 cells [5] = assay: APOPTAG (TUNEL) apoptosis assay on microscale chip (HepG2/C3A liver, HCT116 target tissues); assay type: cell-based, human; settings: 1 μM, 24 hour exposure, compared to untreated controls
From the text: as §4
as §3, with “section). The assay was first optimized using cells grown on glass coverslips. Briefly, HepG2/C3A cells were seeded onto poly-D-lysine treated glass coverslips and treated with and without staurosporine. Coverslips were processed as described (see Methods section).” for “section).”

HepG2/C3A cells [6] = assay: LIVE/DEAD assay, HepG2/C3A cells on poly-D-lysine treated glass coverslips; assay type: cell-based, human; settings: 1 μM, 24 hours
From the text: as §2
The LIVE/DEAD assay was optimized (see Methods section) using cells grown on glass coverslips. Briefly, HepG2/C3A cells were seeded onto poly-D-lysine treated glass coverslips and treated with and without 1 μM staurosporine for 24 hours. […]

[7] = system: HT29 human colon cancer cells; assay: Microscale chip, HepG2-C3A cells in liver compartment and HT29 cells in target tissue compartment, LIVE/DEAD staining; assay type: cell-based; settings: 24 hours; for efficacy against HT-29 colon cancer cells on chip: HepG2-C3A cells in liver compartment, HT-29 cells with mutant p53
From the text: as §2

## O=c1[nH]cc(F)c(=O)[nH]1 [5-FU, 5-fluorouracil]
HCT-116 cells; HCT-116 cells on coverslips
  exposure before cytotoxicity was observed, traditional cell culture assay: ≥ 48 h
HCT-116 cells
  cell death of HCT-116 cells, traditional cell culture assay: triggered cell death
[1]
  cell death of HCT-116 cells on chip without liver compartment cells: caused substantial cell death

## CN[C@@H]1C[C@H]2O[C@@](C)([C@@H]1OC)n1c3ccccc3c3c4c(c5c6ccccc6n2c5c31)C(=O)NC4 [Staurosporine]
[2]
  apoptosis on chip (annexin V-FITC): caused significant apoptosis
HCT116 cells [3]
  cell death of HCT116 cells on chip (LIVE/DEAD): Significant cell death; also recorded: significant apoptosis (or cytotoxicity)
HepG2/C3A cells [4]
  apoptosis of HepG2/C3A cells (APOPTAG): caused significant apoptosis
HCT116 cells [5]
  apoptosis of HCT116 cells on chip (APOPTAG): significant apoptosis (or cytotoxicity)
HepG2/C3A cells [6]
  cell death of HepG2/C3A cells (LIVE/DEAD): clearly cause cell death

## CC1=C(CC(=O)O)c2cc(F)ccc2/C1=C\c1ccc([S+](C)[O-])cc1 (centres unmarked) [Sulindac, sulindac sulfoxide]
[7]
  efficacy against HT-29 colon cancer cells on chip: effective
[7]; One hundred micromoles, in the absence of the HepG2-C3A liver cells
  cell death of HT29 cells in target tissue compartment: minimal levels of cell death

## O=c1[nH]c(=O)n(C2CCCO2)cc1F (centres unmarked) [Tegafur, 5-fluoro-1-(2-tetrahydrofuryl)-2,4(1H,3H)-pyrimidi-nedione]
[7]
  efficacy against HT-29 colon cancer cells on chip: ineffective
HCT-116 cells
  cell death of HCT-116 cells, traditional cell culture assay: ineffective
[1]
  cytotoxicity to HCT-116 cells on chip: cytotoxic to HCT-1-16-cells in a dose dependent fashion
  cell death of HCT-116 cells on chip without liver compartment cells: did not cause significant cell death
